The source of these data is PMC9090415, “Discovery of small molecule inhibitors of Plasmodium falciparum apicoplast DNA polymerase” (Journal of Enzyme Inhibition and Medicinal Chemistry, 2022).

This assay has as its target T1, bacteriophage T4 DNA polymerase (Enterobacteria phage T4, UniProt P04415).
T1 construct: made in house
T1 sequence (P04415 1-898): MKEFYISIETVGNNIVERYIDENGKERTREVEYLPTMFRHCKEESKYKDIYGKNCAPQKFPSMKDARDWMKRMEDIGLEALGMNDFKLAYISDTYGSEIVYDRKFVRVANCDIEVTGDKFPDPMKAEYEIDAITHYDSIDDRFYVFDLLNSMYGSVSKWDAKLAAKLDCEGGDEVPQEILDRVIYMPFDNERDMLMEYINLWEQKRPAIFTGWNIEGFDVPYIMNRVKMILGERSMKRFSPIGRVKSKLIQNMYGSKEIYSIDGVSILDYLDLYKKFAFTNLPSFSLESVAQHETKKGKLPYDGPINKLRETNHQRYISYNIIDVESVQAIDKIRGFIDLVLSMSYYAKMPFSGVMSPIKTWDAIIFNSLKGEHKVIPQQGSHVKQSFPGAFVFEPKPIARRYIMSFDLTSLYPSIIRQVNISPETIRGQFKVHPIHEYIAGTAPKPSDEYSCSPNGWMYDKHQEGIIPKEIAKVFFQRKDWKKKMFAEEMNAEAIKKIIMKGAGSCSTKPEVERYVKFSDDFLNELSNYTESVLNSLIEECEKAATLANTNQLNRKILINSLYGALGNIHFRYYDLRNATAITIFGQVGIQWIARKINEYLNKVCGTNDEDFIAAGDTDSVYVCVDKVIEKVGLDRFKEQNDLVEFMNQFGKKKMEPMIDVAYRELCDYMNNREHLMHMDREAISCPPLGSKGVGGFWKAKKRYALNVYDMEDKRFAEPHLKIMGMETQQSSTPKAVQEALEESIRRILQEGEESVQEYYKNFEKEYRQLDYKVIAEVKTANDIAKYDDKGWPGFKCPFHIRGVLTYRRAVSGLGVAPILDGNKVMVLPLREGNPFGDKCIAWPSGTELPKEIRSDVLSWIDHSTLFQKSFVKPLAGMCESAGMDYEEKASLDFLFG
The experiment in a line: Counter-screen against bacteriophage T4 DNA polymerase. Conditions: for % inhibition T4 10' 2.5 / % inhibition T4 10' 5 / % inhibition T4 10' 10 / % inhibition T4 10' 20 / % inhibition T4 10' 40 / % inhibition T4 10' 80: read at 10'; for % inhibition T4 70' 2.5 / % inhibition T4 70' 5 / % inhibition T4 70' 10 / % inhibition T4 70' 20 / % inhibition T4 70' 40 / % inhibition T4 70' 80: read at 70'; for % inhibition T4 130' 2.5 / % inhibition T4 130' 5 / % inhibition T4 130' 10 / % inhibition T4 130' 20 / % inhibition T4 130' 40 / % inhibition T4 130' 80: read at 130'; for % inhibition T4 40' 2.5 / % inhibition T4 40' 5 / % inhibition T4 40' 10 / % inhibition T4 40' 20 / % inhibition T4 40' 40 / % inhibition T4 40' 80: read at 40'; for % inhibition T4 90' 2.5 / % inhibition T4 90' 5 / % inhibition T4 90' 10 / % inhibition T4 90' 20 / % inhibition T4 90' 40 / % inhibition T4 90' 80: read at 90'; for % inhibition T4 180' 2.5 / % inhibition T4 180' 5 / % inhibition T4 180' 10 / % inhibition T4 180' 20 / % inhibition T4 180' 40 / % inhibition T4 180' 80: read at 180'. Format: biochemical. The essentials: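 IC50 values come from dose-response testing of each compound against T4 DNA polymerase. This B-family polymerase was purified in-house and used as the counter-screen.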
(A counterscreen serves to expose hits that act by an unwanted route or on another target.)

For `O=C(Cn1ccc2c(=O)[nH]ccc21)Nc1cc(F)ccc1F` [Molecule 42, O=C(Cn1ccc2c1cc[nH]c2=O)Nc1cc(F)ccc1F], the “% inhibition T4 10'” value is listed as -1.82% (DRC-2, concentration 2.5); -13% (DRC-2, concentration 5); -4% (DRC-2, concentration 20); -13% (DRC-2, concentration 80). Moreover, the “% inhibition T4 40'” value was -4% (DRC-2, concentration 20) and -13% (DRC-2, concentration 80). Moreover, the “% inhibition T4 180'” value was -1.82% (DRC-2, concentration 2.5) and -13% (DRC-2, concentration 80).
For `COc1ccc(C2CC(c3ccc(Cl)cc3Cl)Nc3nc(N)nn32)cc1OC` (stereo not drawn) [Molecule 43, COc1cc(ccc1OC)C1CC(Nc2n1nc(n2)N)c1ccc(cc1Cl)Cl], where the note is “DRC-1, concentration 2.5”, the “% inhibition T4 10' 2.5” value worked out at 8.55%, the “% inhibition T4 70' 2.5” value is recorded as 8% and the “% inhibition T4 130' 2.5” value was determined as 7%. For the same molecule, under “DRC-1, concentration 5”, the “% inhibition T4 10' 5” value was 0.398%, the “% inhibition T4 70' 5” value was found to be 0.633% and the “% inhibition T4 130' 5” value is on record as -0.436%. Also, under “DRC-1, concentration 10”, the “% inhibition T4 10' 10” value was 3.64%, the “% inhibition T4 70' 10” value is given as 1.77% and the “% inhibition T4 130' 10” value was determined as 0.362%. For the same molecule, for the setting “DRC-1, concentration 20”, the “% inhibition T4 10' 20” value turned out to be 1.67%, the “% inhibition T4 70' 20” value was found to be 0.0404% and the “% inhibition T4 130' 20” value is -1.3%. In addition, for the setting “DRC-1, concentration 40”, the “% inhibition T4 10' 40” value is 9%, the “% inhibition T4 70' 40” value amounted to 8% and the “% inhibition T4 130' 40” value came to 6%. Further, where the note is “DRC-1, concentration 80”, the “% inhibition T4 10' 80” value is 12%, the “% inhibition T4 70' 80” value was found to be 9% and the “% inhibition T4 130' 80” value is reported as 8.47%. Also, for the setting “DRC-2, concentration 2.5”, the “% inhibition T4 10' 2.5” value was found to be 3.49%, the “% inhibition T4 40' 2.5” value is reported as 2.64%, the “% inhibition T4 90' 2.5” value is on record as 2% and the “% inhibition T4 180' 2.5” value is on record as -2.47%. Further, for the setting “DRC-2, concentration 5”, the “% inhibition T4 10' 5” value is recorded as -2.24%, the “% inhibition T4 40' 5” value is recorded as -2.79%, the “% inhibition T4 90' 5” value was -3% and the “% inhibition T4 180' 5” value is listed as -8%. Under “DRC-2, concentration 10”, the “% inhibition T4 10' 10” value was -1.16%, the “% inhibition T4 40' 10” value is -1.88%, the “% inhibition T4 90' 10” value was -0.792% and the “% inhibition T4 180' 10” value is reported as -5%. Further, where the note is “DRC-2, concentration 20”, the “% inhibition T4 10' 20” value was -2.26%, the “% inhibition T4 40' 20” value is on record as -2.36%, the “% inhibition T4 90' 20” value is -3% and the “% inhibition T4 180' 20” value is -7%. Also, for the setting “DRC-2, concentration 40”, the “% inhibition T4 10' 40” value stood at 0.721%, the “% inhibition T4 40' 40” value stood at 1%, the “% inhibition T4 90' 40” value is -0.348% and the “% inhibition T4 180' 40” value is reported as -4%. For the same molecule, under “DRC-2, concentration 80”, the “% inhibition T4 10' 80” value worked out at 0.788%, the “% inhibition T4 40' 80” value is 0.512%, the “% inhibition T4 90' 80” value is -1% and the “% inhibition T4 180' 80” value was -2.58%.
As to `O=C(Cc1cc(=O)[nH]c(SCc2ccccc2)n1)Nc1ccc2c(c1)OCO2` [Molecule 46, O=C(Cc1cc(=O)[nH]c(n1)SCc1ccccc1)Nc1ccc2c(c1)OCO2], the “% inhibition T4 10'” value (DRC-2, concentration 2.5) is -13%; the “% inhibition T4 10'” value (DRC-2, concentration 40) is given as 9%; the “% inhibition T4 10'” value (DRC-2, concentration 80) came to 6%. Moreover, the “% inhibition T4 40'” value by setting is: (DRC-2, concentration 2.5) -13%; (DRC-2, concentration 40) 9%; (DRC-2, concentration 80) 6%. The “% inhibition T4 90'” value runs as follows: (DRC-2, concentration 10) 4%; (DRC-2, concentration 40) 9%. Besides, the “% inhibition T4 180'” value (DRC-2, concentration 40) amounted to 4%.
For the molecule `Cc1cccc2c(C(=O)NC(C)C)cc(N(C)C)nc12` [Molecule 47, CC(NC(=O)c1cc(nc2c1cccc2C)N(C)C)C], the “% inhibition T4 10'” value (DRC-2, concentration 20) stood at 28%. Further, under “DRC-2, concentration 40”, the “% inhibition T4 10'” value is 30% and the “% inhibition T4 90'” value was 31%. Besides, for the setting “DRC-2, concentration 80”, the “% inhibition T4 10'” value turned out to be 30%, the “% inhibition T4 90'” value is reported as 31% and the “% inhibition T4 180'” value is reported as 28%.
Turning to `Cc1ccc(NC(=O)Cn2ccc3c(=O)[nH]ccc32)cc1F` [Molecule 48, O=C(Cn1ccc2c1cc[nH]c2=O)Nc1ccc(c(c1)F)C], where the note is “DRC-2, concentration 5”, the “% inhibition T4 10'” value is -12%, the “% inhibition T4 40'” value was -12% and the “% inhibition T4 180'” value was -12%. Where the note is “DRC-2, concentration 10”, the “% inhibition T4 90'” value is given as -15% and the “% inhibition T4 180'” value is -15%.
In the case of `COc1ccccc1CC(=O)N1CCc2c(nc3cc(-c4ccccc4Cl)[nH]n3c2=O)C1` [Molecule 49, COc1ccccc1CC(=O)N1CCc2c(C1)nc1n(c2=O)[nH]c(c1)c1ccccc1Cl], under “DRC-1, concentration 2.5”, the “% inhibition T4 10' 2.5” value is on record as -1.17%, the “% inhibition T4 70' 2.5” value is reported as -2.29% and the “% inhibition T4 130' 2.5” value is reported as -4%. Under “DRC-1, concentration 5”, the “% inhibition T4 10' 5” value is on record as -4%, the “% inhibition T4 70' 5” value is given as -6% and the “% inhibition T4 130' 5” value is -6%. Under “DRC-1, concentration 10”, the “% inhibition T4 10' 10” value was -5.62%, the “% inhibition T4 70' 10” value is -6% and the “% inhibition T4 130' 10” value is -5%. Where the note is “DRC-1, concentration 20”, the “% inhibition T4 10' 20” value is listed as -14%, the “% inhibition T4 70' 20” value is recorded as -13% and the “% inhibition T4 130' 20” value is -12%. In addition, under “DRC-1, concentration 40”, the “% inhibition T4 10' 40” value is given as -19%, the “% inhibition T4 70' 40” value was -18% and the “% inhibition T4 130' 40” value was -13%. Besides, for the setting “DRC-1, concentration 80”, the “% inhibition T4 10' 80” value was -3%, the “% inhibition T4 70' 80” value was -7% and the “% inhibition T4 130' 80” value is listed as -11%. For the same molecule, for the setting “DRC-2, concentration 2.5”, the “% inhibition T4 10' 2.5” value is recorded as -1%, the “% inhibition T4 40' 2.5” value was -2.7%, the “% inhibition T4 90' 2.5” value is reported as -4% and the “% inhibition T4 180' 2.5” value was -9%. Moreover, where the note is “DRC-2, concentration 5”, the “% inhibition T4 10' 5” value is listed as -28%, the “% inhibition T4 40' 5” value is -24%, the “% inhibition T4 90' 5” value is -22% and the “% inhibition T4 180' 5” value is reported as -24%. In addition, for the setting “DRC-2, concentration 10”, the “% inhibition T4 10' 10” value is recorded as -40%, the “% inhibition T4 40' 10” value was -34%, the “% inhibition T4 90' 10” value is listed as -31% and the “% inhibition T4 180' 10” value was -28%. For the same molecule, where the note is “DRC-2, concentration 20”, the “% inhibition T4 10' 20” value was -50%, the “% inhibition T4 40' 20” value is given as -45%, the “% inhibition T4 90' 20” value was -41% and the “% inhibition T4 180' 20” value was -39%. Moreover, under “DRC-2, concentration 40”, the “% inhibition T4 10' 40” value is given as -55%, the “% inhibition T4 40' 40” value is listed as -51%, the “% inhibition T4 90' 40” value is -49% and the “% inhibition T4 180' 40” value was -47%. Further, under “DRC-2, concentration 80”, the “% inhibition T4 10' 80” value is on record as -54%, the “% inhibition T4 40' 80” value is listed as -47%, the “% inhibition T4 90' 80” value is listed as -47% and the “% inhibition T4 180' 80” value is -46%.
On to `COc1cccc(Oc2c(C(F)(F)F)oc3cc(OC(=O)N(C)C)ccc3c2=O)c1` [Molecule 52, COc1cccc(c1)Oc1c(=O)c2ccc(cc2oc1C(F)(F)F)OC(=O)N(C)C], for which the “% inhibition T4 10'” value is recorded as 10% (DRC-2, concentration 20) and 17% (DRC-2, concentration 40). The “% inhibition T4 40'” value is, setting by setting: (DRC-2, concentration 10) 7%; (DRC-2, concentration 20) 10%. Also, the “% inhibition T4 90'” value is, setting by setting: (DRC-2, concentration 5) 3%; (DRC-2, concentration 10) 7%. Also, the “% inhibition T4 180'” value is given as 3% (DRC-2, concentration 20) and 17% (DRC-2, concentration 80).
